Measured values: ChEMBL document CHEMBL4043070, “Isolation, Structure Elucidation, and Absolute Configuration of Syncarpic Acid-Conjugated Terpenoids from Rhodomyrtus tomentosa” (J Nat Prod, 2017)

Experiments:
[1] = Cytotoxicity against human MCF7/DX cells incubated for 48 hrs by MTT assay; format: cell-based
[2] = Reversal of multidrug resistance in human MCF7/DX cells assessed as potentiation doxorubicin-induced cytotoxicity by measuring reduction in doxorubicin IC50 level at 30 uM incubated for 48 hrs by MTT assay relative to untreated control; format: functional
[3] = Reversal of multidrug resistance in human MCF7/DX cells assessed as potentiation doxorubicin-induced cytotoxicity by measuring reduction in doxorubicin IC50 level at 5 uM incubated for 48 hrs by MTT assay relative to untreated control; format: functional

SMILES | IC50 [1] | fold change (FC) [2] | fold change (FC) [3]
C=C[C@]1(CCC=C(C)C)C[C@@H](CC(C)C)C2=C(O1)C(C)(C)C(=O)C(C)(C)C2=O | > 30 µM | 7.4 | 
Cc1ccc2c(c1)[C@H](C(C)C)CC[C@]21C[C@H](CC(C)C)C2=C(O1)C(C)(C)C(=O)C(C)(C)C2=O | > 30 µM | 0.9 | 
CC(C)C[C@H]1C[C@@]2(CC[C@]3(C(C)C)C[C@H]23)OC2=C1C(=O)C(C)(C)C(=O)C2(C)C | > 30 µM | 1 | 
C=C[C@@]1(CCC=C(C)C)C[C@@H](CC(C)C)C2=C(O1)C(C)(C)C(=O)C(C)(C)C2=O | > 30 µM | 4.7 | 
CC(C)C[C@@H]1C[C@@]2(CC[C@]3(C(C)C)C[C@H]23)OC2=C1C(=O)C(C)(C)C(=O)C2(C)C | > 30 µM | 4.5 | 
CC(C)C[C@H]1C[C@]2(CC[C@]3(C(C)C)C[C@H]23)OC2=C1C(=O)C(C)(C)C(=O)C2(C)C | > 30 µM | 5.6 | 
C=C[C@@]1(CCC=C(C)C)C[C@H](CC(C)C)C2=C(O1)C(C)(C)C(=O)C(C)(C)C2=O | > 30 µM | 10.1 | 
COc1ccc(CCN(C)CCCC(C#N)(c2ccc(OC)c(OC)c2)C(C)C)cc1OC (centres undefined) |  |  | 5.4
CC(C)C[C@@H]1C[C@]2(CC[C@]3(C(C)C)C[C@H]23)OC2=C1C(=O)C(C)(C)C(=O)C2(C)C | > 30 µM | 1.2 | 
C=C[C@]1(CCC=C(C)C)C[C@H](CC(C)C)C2=C(O1)C(C)(C)C(=O)C(C)(C)C2=O | > 30 µM | 16.5 | 
